This is an account of results in patent US3941776A, “Resolution/racemization of aminolactam compounds” (Allied Chemical Corporation, priority 1974, dated 1976).

Format in all cases: physicochemical
A short description of series [1]: Racemization of L-ACL with NiCl2 and base from ion exchange resin (Example 4). As to the method: a. A 20 ml ethanol solution containing 8 mmol (D,L-ACL)3 NiCl2 and 8 mmol D,L-ACL was passed through a strongly basic [quaternary ammonium hydroxide type (ANGA-542*)] ion exchange column in about 1 hour. The complex solution was followed by 15 ml ethanol and the combined eluent brought to 50 ml in a volumetric flask.
A reaction solution was prepared from 0.518g (2 mmol) of 50% L-ACL (88% optically pure) in ethanol, 1.13g (4.4 mmol) 50% D,L-ACL in ethanol and 2.48 ml 0.645 M in NiCl2.H2 O in ethanol. This was brought to reflux and 2.5 ml of the solution described above was added. The final quantities thus are total ACL 8 mmol, Ni^+^2, 2 mmol, ^-OH (free or bound to Ni^+^2), 0.3 mmol and Cl^-. 3.7 Mmol, in a total volume of 6.7 ml.
b. A 10 ml sample of 0.90 M NiCl2. H2 O in ethanol, was passed through a weakly basic ion exchange resin (IR-45, supplied by Rohm and Haas Company). The eluent had pH 5.5 (measured with a glass electrode in ethanol; the pH of untreated NiCl2 solution was about 3.7). A 1 ml aliquot of the eluent, containing 0.15 m atoms of Ni^+^+, was mixed with 78 mg (0.60 mmols) of L-ACL in 1 ml methanol. The mixture was heated in a sealed vial at 80°C. for 30 minutes.

A short description of series [2]: Racemization of L-ACL in ACL/NiCl2 solution with sodium methoxide (Example 1, Table 1). To be noted: 0.20 M NiCl2. The procedure:
A sample of 0.702g. […] The molar ratio of ACL to NiCl2 in this solution is 3.5. […] Samples of 2.0 ml each of the solution were sealed and placed in a 60°C. (50° and 40°) bath. At different time intervals the samples were taken from the bath to determine the extent of racemization of L-ACL. To this end each sample was quenched and adjusted to 5.0 ml with 1N.HCl. […] The latter correlation is indicative of the importance of rendering Ni^+^+ coordinately saturated. It should be noted that even at temperatures as low as 40°C. suitable reaction rates are obtained and, in general, a temperature range of about 40° to about 95°C. may be used.

Series [3] is described as follows: Racemization of L-ACL.HCl/L-ACL with catalysts (Examples 13-42, Table IV). To be noted: 15 minutes at 70°C, Cu^II (5-nitrosalicylaldehyde)2, H2O/dimethylformamide 20/80. The procedure:
A solution containing 0.160g (1.25 mmol) L-ACL, 0.206g (1.25 mmol) L-ACL.HCl and […] of Cu^II (5-nitrosalicylaldehyde)2 in 20/80 (v/v) H2 O/dimethylformamide (10 ml overall volume) was heated for 15 minutes at 70°C.
Following the procedure of Example 13, racemization of L-ACL.HCl was conducted in the presence of various catalysts and under various conditions of temperature and concentration; the data is summarized in Table IV.

With `N[C@H]1CCCCNC1=O` [L-ACL, L-α-amino-ε-caprolactam], in series [1] (80°C, 30 minutes, NiCl2 eluent from IR-45 resin, methanol), the extent of racemization result is given as “completely racemized”. Besides, the t1/2 of racemization in series [1] (ethanol, reflux (~80°C), NiCl2, base from ANGA-542 resin) stood at 0.175 h. For the same molecule, the “Racemization Rate t1/2” value was 1.17 h in series [2] (ACL/NiCl2 mole ratio 3.5, Ethanol, 60°C); 16.73 h in series [2] (ACL/NiCl2 mole ratio 3.5, Methanol, 40°C); 5.67 h in series [2] (ACL/NiCl2 mole ratio 3.5, Methanol, 50°C); 0.717 h in series [2] (ACL/NiCl2 mole ratio 4, Ethanol, 60°C); 12.8 h in series [2] (ACL/NiCl2 mole ratio 4, Methanol, 40°C); 4.33 h in series [2] (ACL/NiCl2 mole ratio 4, Methanol, 50°C). The “Racemization Rate t1/2” value in series [2] (ACL/NiCl2 mole ratio 5, Ethanol, 60°C) was 0.433 h; in series [2] (ACL/NiCl2 mole ratio 5, Methanol, 40°C), 9.72 h; in series [2] (ACL/NiCl2 mole ratio 5, Methanol, 50°C) it was 2.7 h; in series [2] (ACL/NiCl2 mole ratio 6, Ethanol, 60°C), 0.367 h; in series [2] (ACL/NiCl2 mole ratio 6, Methanol, 40°C) it was 10.2 h; in series [2] (ACL/NiCl2 mole ratio 6, Methanol, 50°C) it was 2.83 h.

Regarding `Cl.N[C@H]1CCCCNC1=O` [L-ACL.HCl, L-α-amino-ε-caprolactam hydrochloride], in series [3], the extent of racemization entry was “complete racemization”.
